Laboratory results as given in patent US11795177B2, “Substituted quinoline analogs as aldehyde dehydrogenase 1A1 (ALDH1A1) inhibitors” (THE UNITED STATES OF AMERICA, AS REPRESENTED BY THE …, priority 2017, dated 2023).
Structures can show the parent of a compound that is named as a salt.

Columns and labels:
ALDH1A1 enzyme = target: T1, ALDH1A1 enzyme (Homo sapiens, UniProt P00352); assay: ALDH1A1 enzymatic assay (in vitro); type: biochemical; conditions: ALDH1A1 enzyme 20 nM, NAD+ 1 mM, propionaldehyde 80 μM; read-out: ALDH1A1 IC50
T1 sequence (P00352 1-501): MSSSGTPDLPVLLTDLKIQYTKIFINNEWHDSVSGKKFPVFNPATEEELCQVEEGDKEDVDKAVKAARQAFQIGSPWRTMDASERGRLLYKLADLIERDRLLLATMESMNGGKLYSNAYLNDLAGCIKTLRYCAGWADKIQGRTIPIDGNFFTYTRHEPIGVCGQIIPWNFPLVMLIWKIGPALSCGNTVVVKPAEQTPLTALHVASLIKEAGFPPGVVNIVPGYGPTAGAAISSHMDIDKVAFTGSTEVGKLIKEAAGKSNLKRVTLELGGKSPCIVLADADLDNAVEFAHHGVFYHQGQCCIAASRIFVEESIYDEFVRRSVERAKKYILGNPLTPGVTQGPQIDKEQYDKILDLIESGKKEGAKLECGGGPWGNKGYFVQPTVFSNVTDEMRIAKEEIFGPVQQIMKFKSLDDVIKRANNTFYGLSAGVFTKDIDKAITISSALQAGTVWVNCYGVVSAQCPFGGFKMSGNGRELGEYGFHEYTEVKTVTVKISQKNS
Method in brief: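 ALDH1A1 (20 nM final) in 100 mM HEPES pH 7.5, 0.01% Tween 20 was preincubated 15 min at RT with compound (968 pM–57.2 μM final), then started with 1 mM NAD+ and 80 μM propionaldehyde. NADH fluorescence (ex 340/em 450 nm) followed kinetically for 10 min; change normalized to no-inhibitor and no-enzyme controls for percent inhibition and curve fitting.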

MIA PaCa-2 cells = assay: MIA PaCa2 cell-based assay (1,536-well high-content imaging ALDEFLUOR assay); design: species or system human; conditions: Homo sapiens, 0.5 h, ALDEFLUOR BAAA substrate 500 nM, 30 minutes
Method in brief: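 High-content ALDEFLUOR imaging readout: BAA-retaining cells in FITC channel scored against Hoechst-counted nuclei. Before imaging, MIA PaCa-2 cells seeded at 1,000 per well received final 500 nM BAAA and 0.5 nM Hoechst with compounds in 16-point series (1.4 nM to 47.8 μM), 30 min, 37° C.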

Row | Compound | IC50 (ALDH1A1 enzyme) [nM] | IC50 (MIA PaCa-2 cells) [nM]
1 | CS(=O)(=O)N1CCN(C(=O)c2cnc3ccc(F)cc3c2-c2ccc(/C(C#N)=C/C3CC3)cc2)CC1 [Cpd. 357, (Z)-3-cyclopropyl-2-(4-(6-fluoro-3-(4-(methylsulfonyl)piperazine-1-carbonyl)quinolin-4-yl)phenyl)acrylonitrile] | < 500 | < 500
2 | COc1ccc2ncc(C(=O)N3CCN(S(C)(=O)=O)CC3)c(N3CCC4(CC3)OCCO4)c2c1 [Example 13, (6-methoxy-4-(1,4-dioxa-8-azaspiro[4.5]decan-8-yl)quinolin-3-yl)(4-(methylsulfonyl)piperazin-1-yl)methanone, TFA] | < 500 | 1000 to 10000
3 | CC1(C#N)CCN(c2c(C(=O)N3CCN(C(=O)C4CC4)CC3)cnc3ccccc23)CC1 [Example 93, 1-(3-(4-(cyclopropanecarbonyl)piperazine-1-carbonyl)quinolin-4-yl)-4-methylpiperidine-4-carbonitrile] | < 500 | 1000 to 10000
4 | CN(C)C(=O)N1CCN(C(=O)c2cnc3cc(F)c(F)cc3c2N2CCC(C)(C#N)CC2)CC1 [Example 184, 4-(4-(4-cyano-4-methylpiperidin-1-yl)-6,7-difluoroquinoline-3-carbonyl)-N,N-dimethylpiperazine-1-carboxamide] | < 500 | 1000 to 10000
5 | N#CC1(c2ccc(-c3c(C(=O)N[C@H]4C[C@H](O)C4)cnc4ccc(F)cc34)cc2)CC1 [Cpd. 336, 4-(4-(1-cyanocyclopropyl)phenyl)-6-fluoro-N-((1R,3R)-3-hydroxycyclobutyl)quinoline-3-carboxamide] | < 500 | 500 to 1000
6 | COc1ccc2ncc(C(=O)N3CCN(C(=O)C4CC4)CC3)c(N3CCC(OC)CC3)c2c1 [Example 3, (4-(cyclopropanecarbonyl)piperazin-1-yl)(6-methoxy-4-(4-methoxypiperidin-1-yl)quinolin-3-yl)methanone, TFA] | < 500 | > 10000
7 | N#CC1(c2ccc(-c3c(C(=O)Nc4cnn(CC(N)=O)c4)cnc4ccc(F)cc34)cc2)CC1 [Cpd. 342, N-(1-(2-amino-2-oxoethyl)-1H-pyrazol-4-yl)-4-(4-(1-cyanocyclopropyl)phenyl)-6-fluoroquinoline-3-carboxamide] | < 500 | 500 to 1000
8 | CC(=O)C1(c2ccccc2)CCN(c2c(C(=O)N3CCN(C(=O)C4CC4)CC3)cnc3ccc(F)cc23)CC1 [Example 215, 1-(1-(3-(4-(cyclopropanecarbonyl)piperazine-1-carbonyl)-6-fluoroquinolin-4-yl)-4-phenylpiperidin-4-yl)ethanone] | < 500 | 500 to 1000
9 | CCNC(=O)N1CCN(C(=O)c2cnc3cc(F)c(F)cc3c2N2CCC3(CC2)OCCO3)CC1 [Example 142, 4-(6,7-difluoro-4-(1,4-dioxa-8-azaspiro[4.5]decan-8-yl)quinoline-3-carbonyl)-N-ethylpiperazine-1-carboxamide] | < 500 | 1000 to 10000
10 | CCNC(=O)N1CCN(C(=O)c2cnc3cc(F)c(F)cc3c2N2CCC(C)(C#N)CC2)CC1 [Example 146, 4-(4-(4-cyano-4-methylpiperidin-1-yl)-6,7-difluoroquinoline-3-carbonyl)-N-ethylpiperazine-1-carboxamide] | 500 to 1000 | 1000 to 10000
11 | CC1(C#N)CCN(c2c(C(=O)N3CCC(S(C)(=O)=O)CC3)cnc3c(F)cc(F)cc23)CC1 [Example 189, 1-(6,8-difluoro-3-(4-(methylsulfonyl)piperidine-1-carbonyl)quinolin-4-yl)-4-methylpiperidine-4-carbonitrile] | < 500 | 1000 to 10000
12 | CN(C)S(=O)(=O)N1CCN(C(=O)c2cnc3ccc(F)cc3c2-c2ccc(C(C)(C)C#N)cc2)CC1 [Example 261, 4-(4-(4-(2-cyanopropan-2-yl)phenyl)-6-fluoroquinoline-3-carbonyl)-N,N-dimethylpiperazine-1-sulfonamide] | < 500 | < 500
13 | CCC(=O)N1CCN(C(=O)c2cnc3ccc(Cl)cc3c2N2CCC(C)(C#N)CC2)CC1 [Example 118, 1-(6-chloro-3-(4-propionylpiperazine-1-carbonyl)quinolin-4-yl)-4-methylpiperidine-4-carbonitrile] | < 500 | 1000 to 10000
14 | CN(C)S(=O)(=O)N1CCN(C(=O)c2cnc3ccsc3c2N2CCC(C#N)(c3ccccc3)CC2)CC1 [Example 287, 4-(7-(4-cyano-4-phenylpiperidin-1-yl)thieno[3,2-b]pyridine-6-carbonyl)-N,N-dimethylpiperazine-1-sulfonamide] | < 500 | < 500
15 | CS(=O)(=O)N1CCN(C(=O)c2cnc3ccc(F)cc3c2N2CCC(C#N)(CC3CC3)CC2)CC1 [Example 243, 4-(cyclopropylmethyl)-1-(6-fluoro-3-(4-(methylsulfonyl)piperazine-1-carbonyl)quinolin-4-yl)piperidine-4-carbonitrile] | < 500 | < 500
16 | CN(C)C(=O)N1CCN(C(=O)c2cnc3ccc(F)cc3c2-c2ccc(C(C)(C)C#N)cc2)CC1 [Example 263, 4-(4-(4-(2-cyanopropan-2-yl)phenyl)-6-fluoroquinoline-3-carbonyl)-N,N-dimethylpiperazine-1-carboxamide] | < 500 | < 500
17 | CC1(C#N)CCN(c2c(C(=O)N3CCC(S(C)(=O)=O)CC3)cnc3cc(F)c(F)cc23)CC1 [Example 190, 1-(6,7-difluoro-3-(4-(methylsulfonyl)piperidine-1-carbonyl)quinolin-4-yl)-4-methylpiperidine-4-carbonitrile] | < 500 | 1000 to 10000
18 | O=C(c1cnc2ccc(F)cc2c1N1CCC2(CC1)OCCO2)N1CCN(C(=O)N2CCCC2)CC1 [Example 150, (6-fluoro-4-(1,4-dioxa-8-azaspiro[4.5]decan-8-yl)quinolin-3-yl)(4-(pyrrolidine-1-carbonyl)piperazin-1-yl)methanone] | < 500 | > 10000
19 | CN(C)S(=O)(=O)N1CCN(C(=O)c2cnc3ccc(F)cc3c2N2CCC3(CC2)OCCO3)CC1 [Example 152, 4-(6-fluoro-4-(1,4-dioxa-8-azaspiro[4.5]decan-8-yl)quinoline-3-carbonyl)-N,N-dimethylpiperazine-1-sulfonamide] | < 500 | 500 to 1000
20 | CC1(C#N)CCN(c2c(C(=O)N3CCN(C(=O)N4CCCC4)CC3)cnc3cc(F)c(F)cc23)CC1 [Example 175, 1-(6,7-difluoro-3-(4-(pyrrolidine-1-carbonyl)piperazine-1-carbonyl)quinolin-4-yl)-4-methylpiperidine-4-carbonitrile] | 1000 to 10000 | 1000 to 10000
21 | CS(=O)(=O)N1CCN(C(=O)c2cnc3ccc(F)cc3c2N2CCC(C#N)(c3cccs3)CC2)CC1 [Cpd. 356, 1-(6-fluoro-3-(4-(methylsulfonyl)piperazine-1-carbonyl)quinolin-4-yl)-4-(thiophen-2-yl)piperidine-4-carbonitrile] | < 500 | < 500
22 | COc1ccc2ncc(C(=O)N3CCOCC3)c(N3CCC4(CC3)OCCO4)c2c1 [Example 39, (6-methoxy-4-(1,4-dioxa-8-azaspiro[4.5]decan-8-yl)quinolin-3-yl)(morpholino)methanone] | 500 to 1000 | > 10000
23 | N#CC1(O)CCN(C(=O)c2cnc3ccc(F)cc3c2N2CCC(C#N)(c3ccccc3)CC2)CC1 [Cpd. 341, 1-(3-(4-cyano-4-hydroxypiperidine-1-carbonyl)-6-fluoroquinolin-4-yl)-4-phenylpiperidine-4-carbonitrile] | < 500 | 500 to 1000
24 | CS(=O)(=O)N1CCN(C(=O)c2cnc3c(F)c(F)c(F)cc3c2N2CCC3(CC2)OCCO3)CC1 [Example 134, (4-(methylsulfonyl)piperazin-1-yl)(6,7,8-trifluoro-4-(1,4-dioxa-8-azaspiro[4.5]decan-8-yl)quinolin-3-yl)methanone] | < 500 | 1000 to 10000
25 | Cc1ccc(C2(C#N)CCN(c3c(C(=O)N4CCN(S(C)(=O)=O)CC4)cnc4ccc(F)cc34)CC2)c(F)c1 [Example 277, 1-(6-fluoro-3-(4-(methylsulfonyl)piperazine-1-carbonyl)quinolin-4-yl)-4-(2-fluoro-4-methylphenyl)piperidine-4-carbonitrile] | < 500 | < 500
26 | COc1ccc2c(N3CCC(C)(C#N)CC3)c(C(=O)N3CCN(C(C)=O)CC3)cnc2c1 [Example 104, 1-(3-(4-acetylpiperazine-1-carbonyl)-7-methoxyquinolin-4-yl)-4-methylpiperidine-4-carbonitrile] | < 500 | > 10000
27 | COc1ccc2ncc(C(=O)N3CCN(C(=O)C4CC4)CC3)c(N3CCC(C)(OC)CC3)c2c1 [Example 26, (4-(cyclopropanecarbonyl)piperazin-1-yl)(6-methoxy-4-(4-methoxy-4-methylpiperidin-1-yl)quinolin-3-yl)methanone] | < 500 | > 10000
